Data as given in patent US9776983B2, “Method for manufacturing fluoropolymers” (SOLVAY SOLEXIS S.p.A., priority 2008, dated 2017).
Values joined by “and” are separate entries in the source; they are usually repeats but may differ in a detail not shown here. Equal values may be shown once.

Assays:
[1] = pKa of acid (D); type: physicochemical; conditions: free acid (D)
Protocol: An aqueous solution composed of KMnO4 (238 mmol, 37.6 g), NaOH (238 mmol, 9.52 g) in 200 ml of distilled H2O was introduced in a 3-necked glass round-bottomed flask equipped with a magnetic stirrer, a dropping funnel, a thermometer and a tap water refrigerating column. The flask was heated to 80° C. with vigorous stirring and then 238 mmol; 50 g of product obtained from step 1a was slowly dropped into the basic oxidizing solution. Immediate exothermic release (+15° C.) was observed together with formation of MnO2 precipitate. After completion of the addition, solution was further stirred at 80° C. for 40 min. Crude reaction mixture was then cooled to room temperature, filtered, acidified to pH=1 with concentrated HCl (37% w/w) and extracted several times with CH2Cl2. The organic layer was dried over MgSO4, filtered and then the CH2Cl2 is evaporated.

[2] = Thermogravimetric analysis (TGA) in air; type: physicochemical; conditions: ammonium salt
Protocol: (§1) An organic solution composed of (D) (127 mmol; 30.6 g) and 200 ml of CH2Cl2 was introduced in a 2-necked glass round-bottomed flask equipped with a magnetic stirrer, a tap water refrigerating column and a bubbling tube. The mixture was cooled to 0° C. with vigorous stirring and a large excess of gaseous NH3 was bubbled through the organic mixture. Bubbling of NH3 (g) was pursued until completion of the precipitation of the ammonium salt. Crude mixture was filtered; solid was dried in a vacuum oven at 40° C. under reduced pressure (20 mmHg) for 2 hours. A flaky white solid is obtained. Isolated yield of compound (E) (VIIa, with Xa being NH4)=100%. […] FIG. 2 depicts the ^19F-NMR spectrum of compound (E).
Perfluorinated ester (G) was hydrolyzed in water at 0° C., yielding corresponding acid with quantitative yield. Evolved HF was neutralized with 1.5 mol eq. of KF, yielding solid KHF2, which was separated by filtration. After removal of solvent, the free acid (b.p.=160° C.) and CF3COOH (b.p.=72° C.) were separated by fractional distillation. Gaseous NH3 was then bubbled in a CH2Cl2 (200 ml) solution of the acid; ammonium salt (H) (formula Va, with Xa═NH4) was then recovered with a yield of 75% moles (with respect to alcohol intermediate (B)). […] FIG. 3 depicts the ^19F-NMR spectrum recorded on compound (H).
Acid (XIII, Xa═H) was solubilised in CH2Cl2 (200 ml); gaseous NH3 was then bubbled in said solution; ammonium salt (XIII, Xa═NH4) was then recovered with a yield of 75% moles (with respect to alcohol intermediate (L)). […] FIG. 7 depicts the ^19F-NMR spectrum recorded on ammonium salt (XIII, Xa═NH4).

[3] = Oral acute toxicity; type: in vivo
Protocol: as §1

[4] = Plasma levels and pharmacokinetic parameters after single oral (gavage) administration; type: in vivo, male Wistar (SPF-bred) rats; conditions: for elimination from blood compared with APFO: after single oral administration, C/Cmax versus time (FIG. 5); for time of maximal plasma concentration (tmax): single oral, Va, VIIa about 70 μmol/kg, XIII 73 umol/kg
Protocol: (§2) Compound Va and VIIa (Xa═NH4) were administered by single oral route (gavage) three male Wistar (SPF-bred) rats at dose levels of about 70 μmol/kg of dry ammonium salt, corresponding to the 21.2 mg/kg for compound Va and 19.9 mg/kg for compound VIIa. Blood sampling occurred 15 minutes before administration, at 4, 8, 12, 24, 72 and 168 hours after administration.
(§3) Compound XIII was dosed by single oral administration to 3 male Wistar rats at the dose of 73 umol/kg corresponding to 26.06 mg/kg. Blood sampling occurred at 15 minutes before administration, at 4, 8, 12, 24, 72 and 168 hours after administration. Urine samples were obtained at time intervals 0-12, 12-24, 24-72, 72-96, 96-168 hours after dosing. Plasma and urine concentration of XIII were determined by a validated analytical method.
Results of plasma concentrations for compound VIIa (Xa═NH4), Va (Xa═NH4), XIII (Xa═NH4) and APFO as a function of time are sketched in FIG. 5. This graph depicts ratio C/Cmax for compound Va (Xa═NH4) (●) compound VIIa (Xa═NH4) (◯), for compound XIII (Xa═NH4) (□) and APFO (▴), with C=instantaneous plasma concentration and Cmax=maximum plasma concentration, as a function of time (in hours).

[5] = Urine levels and urinary recovery after single oral administration; type: in vivo, male Wistar rats
Protocol: as §2, §3

[6] = plasma, male rats, single oral gavage, about 70 μmol/kg, individual values of the three animals, listed as VIIa (Xa = NH4)

O=C(O)C1(F)OC(F)(F)OC1OC(F)(F)F (stereo not shown) [(D)]
pKa [1]: 2.8

N.O=C(O)C1(F)OC(F)(F)OC1OC(F)(F)F (stereo not shown) [Compound VIIa]
TGA temperature at weight decrease of 10% [2]: 148 °C | TGA temperature at weight decrease of 50% [2]: 182 °C | LD50 [3]: exceed 2000 mg/kg | elimination from blood compared with APFO [4]: significantly faster elimination | tmax ([4]; plasma, male rats, single oral gavage, about 70 μmol/kg, individual values of the three animals): 4, 4, 4 h | AUC0-t [4, 6]: 135.608 µg·h/mL and 47.07 µg·h/mL and 114.562 µg·h/mL | AUCinf. [4, 6]: 47.137 µg·h/mL and 115.916 µg·h/mL and 137.788 µg·h/mL | Cmax [4, 6]: 11258 ng/mL and 14767 ng/mL and 18878 ng/mL | t1/2, z [4, 6]: 4.8 h and 8.0 h and 8.9 h | reliable plasma half life ([4]; single oral gavage, about 70 μmol/kg, male Wistar rats): 8.0 to 8.9 h | time of maximal plasma concentration (tmax) ([4]; male Wistar rats): 4 h | urinary recovery at 168 hours after treatment ([5]; rats, single oral administration): 97-107% | urinary half lives ([5]; rats, single oral administration, individual values): 9 h and 13 h and 10 h

N.O=C(O)C(F)(F)OC1(F)OC(F)(F)OC1(F)OC(F)(F)F (stereo not shown) [Compound XIII]
TGA temperature at weight decrease of 10% [2]: 159 °C | TGA temperature at weight decrease of 50% [2]: 191 °C | elimination from blood compared with APFO [4]: significantly faster elimination | time of maximal plasma concentration (tmax) ([4]; male Wistar rats): 4 h | mean urinary recovery in 168 hours after treatment ([5]; 3 male Wistar rats, single oral, 73 umol/kg (26.06 mg/kg)): around 82%
